According to the NIST ThermoML archive (doi:10.1021/je1005533):

Key:
[1] = refractive index (other wavelength) (dimensionless); details: 101.3 kPa, Liquid, Wavelength=632.8 nm, Standard Abbe refractometry
[2] = refractive index (other wavelength) (dimensionless); xn = mol fraction of the nth substance listed; details: 101.3 kPa, Liquid, Wavelength=632.8 nm, Standard Abbe refractometry

COC(=O)OC [dimethyl carbonate]
[1]
Details | refractive index
308.25 K | 1.3607
309.26 K | 1.3602
310.32 K | 1.3597
311.36 K | 1.3592
312.44 K | 1.3587
313.49 K | 1.3582
314.53 K | 1.3577
315.56 K | 1.3572
316.66 K | 1.3567
317.67 K | 1.3562
318.72 K | 1.3557
327.67 K | 1.3514

COC(=O)OC [dimethyl carbonate] + CCCCCCCCCCCCCCCC
[2], x1 = 1
Details | refractive index
308.25 K | 1.3607
309.26 K | 1.3602
310.32 K | 1.3597
311.36 K | 1.3592
312.44 K | 1.3587
313.49 K | 1.3582
314.53 K | 1.3577
315.56 K | 1.3572
316.66 K | 1.3567
317.67 K | 1.3562
318.72 K | 1.3557

COC(=O)OC [dimethyl carbonate] + CCCCCCCCCCCCCCCCCC
Details | refractive index
[2], 327.67 K, x1 = 1 | 1.3514

CCCCCCCCCCCCCCCC [hexadecane]
[1]
Details | refractive index
308.21 K | 1.427
309.24 K | 1.4265
310.21 K | 1.4261
311.24 K | 1.4256
312.3 K | 1.4252
313.34 K | 1.4248
314.44 K | 1.4244
315.54 K | 1.4239
316.55 K | 1.4235
317.56 K | 1.4231
318.61 K | 1.4226

CCCCCCCCCCCCCCCCCC [octadecane]
Details | refractive index
[1], 327.67 K | 1.4231

CCCCCCCCCCCCCCCCCC [octadecane] + COC(=O)OC
[2], 327.67 K
Details | refractive index
x2 = 0 | 1.4231
x2 = 0.099 | 1.4203
x2 = 0.202 | 1.4169
x2 = 0.299 | 1.4132
x2 = 0.399 | 1.4089
x2 = 0.509 | 1.4034
x2 = 0.601 | 1.3979
x2 = 0.701 | 1.3907
x2 = 0.807 | 1.3806
x2 = 0.902 | 1.3685
